Reference: US6642216B2, “Isoprenoid pathway inhibitors for stimulating bone growth” (ZymoGenetics Corporation, priority 1996, dated 2003)

Experiments:
neonatal mouse calvaria = assay: Neonatal mouse calvaria assay (in vitro bone formation); type: cell-based; design: Osteoblast Number, % increase over vehicle control / New Bone Area, % increase over vehicle control: concentration or dose not given beside the values
Protocol: Briefly, four days after birth, the front and parietal bones of ICR Swiss white mouse pups are removed by microdissection and split along the sagittal suture.
Three μm sections of the calvaria are prepared. Representative sections are selected for histomorphometric assessment of bone formation or bone resorption. Bone changes are measured on sections cut 200 μm apart. Osteoblasts and osteoclasts are identified by their distinctive morphology.
Selected compounds and appropriate controls were assayed in vitro (ex vivo) for bone formation activity (described above in “Neonatal Mouse Calvaria Assay (in vitro)”). Histomorphometrical assessments of ex vivo calvaria were carried out using an OsteoMetrics bone morphometry measurement program, according to the manufacturer's instructions. Measurements were determined using either a 10- or 20-fold objective with a standard point counting eyepiece graticule.
New bone formation was determined (using a 10× objective) by measuring the new bone area formed in one field in 3 representative sections of each bone (4 bones per group). Each measurement was carried out ½ field distance from the end of the suture. Both total bone and old bone area were measured. Data were expressed as new bone area in mm^2.
Osteoblast numbers were determined by point counting. The number of osteoblast cells lining the bone surface on both sides of the bone were counted in one field using a 20× objective. Data were expressed as osteoblast numbers/mm of bone surface.
The results were calculated as new bone area in mm^2×10^−3, as above.

BMP-2 promoter = assay: ABA assay: BMP-2 promoter-luciferase reporter in 2T3-BMP-2-LUC osteoblast cells; type: cell-based, mouse
Protocol: These transformed cells are then evaluated for the production of the reporter gene product; compounds that activate the BMP promoter will drive production of the reporter protein, which can be readily assayed.
The cells were cultured using α-MEM, 10% FCS with 1% penicillin/streptomycin and 1% glutamine (“plating medium”), and were split 1:5 once per week. For the assay, the cells were resuspended in a plating medium containing 4% FCS, plated in microtiter plates at a concentration of 5×10^3 cells (in 50 μl)/well, and incubated for 24 hours at 37° C. in 5% CO2. To initiate the assay, 50 μl of the test compound or the control in DMSO was added at 2× concentration to each well, so that the final volume was 100 μl. The final serum concentration was 2% FCS, and the final DMSO concentration was 1%.
The treated cells were incubated for 24 hours at 37° C. and 5% CO2. The medium was then removed, and the cells were rinsed three times with PBS. After removal of excess PBS, 25 μl of 1× cell culture lysing reagent (Promega #E153A) was added to each well and incubated for at least ten minutes. Optionally, the plates/samples could be frozen at this point. To each well was added 50 μl of luciferase substrate (Promega #E152A; 10 ml Promega luciferase assay buffer per 7 mg Promega luciferase assay substrate). Luminescence was measured on an automated 96-well luminometer, and was expressed as either picograms of luciferase activity per well or as picograms of luciferase activity per microgram of protein.
Alternatively, the reactivity of a compound to be tested can be compared directly to a negative control containing no compound.

[1] = test system: ICR Swiss white mice calvaria; assay: In vivo murine calvarial bone growth assay; design: species or system mouse
Protocol: Male ICR Swiss white mice, aged 4-6 weeks and weighing 13-26 gm, are employed, using 4-5 mice per group. The calvarial bone growth assay is performed as described in PCT application WO 95/24211, incorporated by reference. Briefly, the test compound or appropriate control vehicle is injected into the subcutaneous tissue over the right calvaria of normal mice. Typically, the control vehicle is the vehicle in which the compound was solubilized, and is PBS containing 5% DMSO or is PBS containing Tween (2 μl/10 ml). The animals are sacrificed on day 14 and bone growth measured by histomorphometry. Bone samples for quantitation are cleaned from adjacent tissues and fixed in 10% buffered formalin for 24-48 hours, decalcified in 14% EDTA for 1-3 weeks, processed through graded alcohols; and embedded in paraffin wax. Three to five μm sections of the calvaria are prepared, and representative sections are selected for histomorphometric assessment of the effects on bone formation and bone resorption. Sections are measured by using a camera lucida attachment to trace directly the microscopic image onto a digitizing plate. Bone changes are measured on sections cut 200 μm apart, over 4 adjacent 1×1 mm fields on both the injected and noninjected sides of the calvaria. New bone is identified by its characteristic woven structure, and osteoclasts and osteoblasts are identified by their distinctive morphology. Histomorphometry software (OsteoMeasure, Osteometrix, Inc., Atlanta) is used to process digitizer input to determine cell counts and measure areas or perimeters.
The results are reported as a measurement of total bone area (and % increase in area over vehicle control), as shown below.

chickens = settings: Cui et al. 1996; cited from earlier work
[2] = Experiment 3, 8.88178E μg/ml (0.002193 μM lovastatin, 0.002087 μM fluvastatin)

## CCC(C)(C)C(=O)O[C@H]1C[C@@H](C)C=C2C=C[C@H](C)[C@H](CC[C@@H]3C[C@@H](O)CC(=O)O3)[C@H]21 [Simvastatin, simvastatin]
Neonatal mouse calvaria; Experiment 1, 3 days
  New Bone Area: 8.5 mm^2 × 10^−3
  New Bone Area, % increase over vehicle control: 77%
  Osteoblast Number: 156 Obs/field
  Osteoblast Number, % increase over vehicle control: 63%
Neonatal mouse calvaria; Experiment 1, 7 days
  New Bone Area: 17.4 mm^2 × 10^−3
  New Bone Area, % increase over vehicle control: 123%
  Osteoblast Number: 154 Obs/field
  Osteoblast Number, % increase over vehicle control: 68%
Neonatal mouse calvaria; Experiment 2, 3 days
  New Bone Area: 15.4 mm^2 × 10^−3
  New Bone Area, % increase over vehicle control: 285%
  Osteoblast Number: 154 Obs/field
  Osteoblast Number, % increase over vehicle control: 70%
Neonatal mouse calvaria; combination study, IBN (1 μM), 59-0328 0.1 μM alone
  New Bone Area: 5.1 ± 0.49 mm^2 × 10^−3
Neonatal mouse calvaria; combination study, IBN (1 μM), 59-0328 0.2 μM alone
  New Bone Area: 5.23 ± 0.89 mm^2 × 10^−3
Neonatal mouse calvaria; combination study, IBN (10 μM), 59-0328 0.1 μM alone
  New Bone Area: 4.25 ± 0.59 mm^2 × 10^−3
Neonatal mouse calvaria; combination study, IBN (10 μM), 59-0328 0.2 μM alone
  New Bone Area: 6.83 ± 1.54 mm^2 × 10^−3
BMP-2 promoter; Experiment 1, 0.195312 μg/ml
  % 59-0008 Response: 29.030%
BMP-2 promoter; Experiment 1, 0.390625 μg/ml
  % 59-0008 Response: 38.210%
BMP-2 promoter; Experiment 1, 0.78125 μg/ml
  % 59-0008 Response: 69.600%
BMP-2 promoter; Experiment 1, 1.5625 μg/ml
  % 59-0008 Response: 99.170%
BMP-2 promoter; Experiment 1, 3.125 μg/ml
  % 59-0008 Response: 135.610%
BMP-2 promoter; Experiment 1, 6.25 μg/ml
  % 59-0008 Response: 141.970%
BMP-2 promoter; Experiment 1, 12.5 μg/ml
  % 59-0008 Response: 131.300%
BMP-2 promoter; Experiment 1, 25 μg/ml
  % 59-0008 Response: 148.310%
BMP-2 promoter; Experiment 1, 50 μg/ml
  % 59-0008 Response: −22.950%
BMP-2 promoter; Experiment 1, 100 μg/ml
  % 59-0008 Response: −23.010%
BMP-2 promoter; Experiment 1, 200 μg/ml
  % 59-0008 Response: −22.960%
BMP-2 promoter; Experiment 2, 0.465820 μM, 0.195312 μg/ml
  % 59-0008 Response: 0.310%
BMP-2 promoter; Experiment 2, 0.931640 μM, 0.390625 μg/ml
  % 59-0008 Response: 2.600%
BMP-2 promoter; Experiment 2, 1.863281 μM, 0.78125 μg/ml
  % 59-0008 Response: 6.820%
BMP-2 promoter; Experiment 2, 3.726562 μM, 1.5625 μg/ml
  % 59-0008 Response: 19.670%
BMP-2 promoter; Experiment 2, 7.453125 μM, 3.125 μg/ml
  % 59-0008 Response: 51.660%
BMP-2 promoter; Experiment 2, 14.90625 μM, 6.25 μg/ml
  % 59-0008 Response: 104.640%
BMP-2 promoter; Experiment 2, 29.8125 μM, 12.5 μg/ml
  % 59-0008 Response: 152.290%
BMP-2 promoter; Experiment 2, 59.625 μM, 25 μg/ml
  % 59-0008 Response: 180.640%
BMP-2 promoter; Experiment 2, 119.25 μM, 50 μg/ml
  % 59-0008 Response: 189.430%
BMP-2 promoter; Experiment 2, 238.5 μM, 100 μg/ml
  % 59-0008 Response: 304.100%
BMP-2 promoter; Experiment 2, 477 μM, 200 μg/ml
  % 59-0008 Response: 222.180%
[1]; 1 mg/kg/day
  % increase in total bone area over vehicle control: 2%
  Total Bone Area: 172 μm^2
[1]; 5 mg/kg/day
  % increase in total bone area over vehicle control: 20%
  Total Bone Area: 202 μm^2
[1]; 10 mg/kg/day
  % increase in total bone area over vehicle control: 46%
  Total Bone Area: 245 μm^2
[1]; mouse, in vivo
  increase in the number of osteoblasts: 1.5 fold

## CC[C@H](C)C(=O)O[C@H]1C[C@@H](C)C=C2C=C[C@H](C)[C@H](CC[C@@H]3C[C@@H](O)CC(=O)O3)[C@H]21 [Lovastatin, lovastatin]
Neonatal mouse calvaria
  inducing bone formation, compared with BMP-2 and bFGF: as good as, or better than
Neonatal mouse calvaria; Experiment 3, 3 days
  New Bone Area: 8.2 mm^2 × 10^−3
  New Bone Area, % increase over vehicle control: 182%
  Osteoblast Number: 128 Obs/field
  Osteoblast Number, % increase over vehicle control: 152%
chickens
  bone loss in the femoral head as a result of dexamethasone treatment: improved
BMP-2 promoter
  dose-dependent stimulatory effect in the ABA assay: dose-dependent stimulatory effect
BMP-2 promoter; Experiment 1, 0.195312 μg/ml
  % 59-0008 Response: 22.840%
  Fold increase over negative control: 2.011 fold
BMP-2 promoter; Experiment 1, 0.390625 μg/ml
  % 59-0008 Response: 27.830%
  Fold increase over negative control: 2.232 fold
BMP-2 promoter; Experiment 1, 0.78125 μg/ml
  % 59-0008 Response: 35.220%
  Fold increase over negative control: 2.559 fold
BMP-2 promoter; Experiment 1, 1.5625 μg/ml
  % 59-0008 Response: 67.080%
  Fold increase over negative control: 3.970 fold
BMP-2 promoter; Experiment 1, 3.125 μg/ml
  % 59-0008 Response: 111.730%
  Fold increase over negative control: 5.947 fold
BMP-2 promoter; Experiment 1, 6.25 μg/ml
  % 59-0008 Response: 126.230%
  Fold increase over negative control: 6.589 fold
BMP-2 promoter; Experiment 1, 12.5 μg/ml
  % 59-0008 Response: 153.790%
  Fold increase over negative control: 7.809 fold
BMP-2 promoter; Experiment 1, 25 μg/ml
  % 59-0008 Response: 144.730%
  Fold increase over negative control: 7.408 fold
BMP-2 promoter; Experiment 1, 50 μg/ml
  % 59-0008 Response: −22.510%
  Fold increase over negative control: 0.003 fold
BMP-2 promoter; Experiment 1, 200 μg/ml
  % 59-0008 Response: −22.650%
  Fold increase over negative control: −0.003 fold
BMP-2 promoter; Experiment 3, 0.002842 μg/ml
  % 59-0008 Response: 1.050%
  Fold increase over negative control: 1.032 fold
BMP-2 promoter; Experiment 3, 0.009094 μg/ml
  % 59-0008 Response: 2.720%
  Fold increase over negative control: 1.083 fold
BMP-2 promoter; Experiment 3, 0.029103 μg/ml
  % 59-0008 Response: 1.550%
  Fold increase over negative control: 1.048 fold
BMP-2 promoter; Experiment 3, 0.093132 μg/ml
  % 59-0008 Response: 3.210%
  Fold increase over negative control: 1.099 fold
BMP-2 promoter; Experiment 3, 0.298023 μg/ml
  % 59-0008 Response: 10.860%
  Fold increase over negative control: 1.333 fold
BMP-2 promoter; Experiment 3, 0.953674 μg/ml
  % 59-0008 Response: 35.300%
  Fold increase over negative control: 2.083 fold
BMP-2 promoter; Experiment 3, 3.051757 μg/ml
  % 59-0008 Response: 103.260%
  Fold increase over negative control: 4.169 fold
BMP-2 promoter; Experiment 3, 9.765625 μg/ml
  % 59-0008 Response: 148.030%
  Fold increase over negative control: 5.543 fold
BMP-2 promoter; Experiment 3, 31.25 μg/ml
  % 59-0008 Response: 166.770%
  Fold increase over negative control: 6.118 fold
BMP-2 promoter; [2]
  % 59-0008 Response: 0.620%
  Fold increase over negative control: 1.019 fold
[1]; 0.1 mg/kg/day
  % increase in total bone area over vehicle control: 0%
  Total Bone Area: 162 μm^2
[1]; 1 mg/kg/day
  % increase in total bone area over vehicle control: 41%
  Total Bone Area: 237 μm^2
[1]; 5 mg/kg/day
  % increase in total bone area over vehicle control: 40%
  Total Bone Area: 235 μm^2
[1]; 10 mg/kg/day
  % increase in total bone area over vehicle control: 42%
  Total Bone Area: 239 μm^2
  bone stimulatory effect compared with 12.5 μg/kg/day bFGF: comparable
[1]; varying doses
  effect on total bone area: dose-dependent increase in total bone area
